Values after ≈ are worked out from the molar mass of the structure shown.
Key:
Format in all cases: functional
[1] = test system: CCRF-CEM; assay: Anticancer activity against Homo sapiens (human) CCRF-CEM cells after 48 hr by SRB assay
[2] = test system: UACC-257; assay: Anticancer activity against Homo sapiens (human) UACC257 cells after 48 hr by SRB assay; conditions: UACC-257, 48 h
[3] = test system: UO-31; assay: Growth inhibition of Homo sapiens (human) UO31 cells at 10 uM after 48 hr by SRB assay; conditions: UO-31, 48 h, read-out: GI
[4] = test system: EKVX; assay: Growth inhibition of Homo sapiens (human) EKVX cells at 10 uM after 48 hr by SRB assay; conditions: read-out: GI
[5] = test system: U-251; assay: Growth inhibition of Homo sapiens (human) U251 cells at 10 uM after 48 hr by SRB assay; conditions: U-251, 48 h, read-out: GI
[6] = test system: SNB-75; assay: Anticancer activity against Homo sapiens (human) SNB75 cells after 48 hr by SRB assay; conditions: SNB-75, 48 h
[7] = test system: RPMI-8226; assay: Growth inhibition of Homo sapiens (human) RPMI8226 cells at 10 uM after 48 hr by SRB assay; conditions: RPMI-8226, 48 h, read-out: GI
[8] = test system: OVCAR-4; assay: Anticancer activity against Homo sapiens (human) OVCAR4 cells after 48 hr by SRB assay; conditions: OVCAR-4, 48 h
[9] = test system: Staphylococcus aureus; assay: Antimicrobial activity against Staphylococcus aureus ATCC6538P assessed as diameter of growth inhibition zone at 1 mg/ml after 24 hr by agar cup diffusion method; conditions: read-out: IZ
[10] = test system: U-251; assay: Anticancer activity against Homo sapiens (human) U251 cells after 48 hr by SRB assay; conditions: U-251, 48 h
[11] = test system: IGROV-1; assay: Growth inhibition of Homo sapiens (human) IGROV1 cells at 10 uM after 48 hr by SRB assay; conditions: IGROV-1, 48 h, read-out: GI
[12] = test system: SF-268; assay: Anticancer activity against Homo sapiens (human) SF268 cells after 48 hr by SRB assay; conditions: SF-268, 48 h
[13] = test system: Pseudomonas aeruginosa; assay: Antimicrobial activity against Pseudomonas aeruginosa ATCC9027 assessed as growth inhibition after 48 hr by two-fold serial dilution method; conditions: ATCC9027, 48 h
[14] = test system: CAKI-1; assay: Anticancer activity against Homo sapiens (human) CAKI-1 cells after 48 hr by SRB assay; conditions: CAKI-1, 48 h
[15] = test system: SK-MEL-5; assay: Growth inhibition of Homo sapiens (human) SK-MEL-5 cells at 10 uM after 48 hr by SRB assay; conditions: SK-MEL-5, 48 h, read-out: GI
[16] = test system: ACHN; assay: Growth inhibition of Homo sapiens (human) ACHN cells at 10 uM after 48 hr by SRB assay; conditions: read-out: GI
[17] = test system: M14; assay: Growth inhibition of Homo sapiens (human) M14 cells at 10 uM after 48 hr by SRB assay; conditions: M14, 48 h, read-out: GI
[18] = test system: 786-0; assay: Anticancer activity against Homo sapiens (human) 786-0 cells after 48 hr by SRB assay; conditions: 786-0, 48 h
[19] = test system: HCC 2998; assay: Growth inhibition of Homo sapiens (human) HCC2998 cells at 10 uM after 48 hr by SRB assay; conditions: HCC 2998, 48 h, read-out: GI
[20] = read-out: LC50 (the source's name)

Question: Which results are given for `Cc1c(C(N)=O)sc2nc(C)n(/N=c3\scc(-c4ccccc4)n3Cc3ccccc3)c(=O)c12`?
Answer: GI50 [1]: 34.2 µM; TGI [1]: > 100 µM; CC50 [1, 20]: > 100 µM; GI50 [2]: 3.56 µM; TGI [2]: 24.3 µM; CC50 [2, 20]: > 100 µM; inhibition of growth at 10 µM [3]: 95.9%; inhibition of growth at 10 µM [4]: 107%; inhibition of growth at 10 µM [5]: 92.2%; GI50 [6]: 2.8 µM; TGI [6]: > 100 µM; CC50 [6, 20]: > 100 µM; inhibition of growth at 10 µM [7]: 110%; GI50 [8]: 2.5 µM; TGI [8]: > 100 µM; CC50 [8, 20]: > 100 µM; zone of inhibition at 1000 µg/mL [9]: 10 mm; GI50 [10]: 3.31 µM; TGI [10]: > 100 µM; CC50 [10, 20]: > 100 µM; inhibition of growth at 10 µM [11]: 89.1%; GI50 [12]: 4 µM; TGI [12]: > 100 µM; CC50 [12, 20]: > 100 µM; MIC [13]: 125 µg/mL (≈ 256 µM); GI50 [14]: 3.35 µM; TGI [14]: > 100 µM; CC50 [14, 20]: > 100 µM; inhibition of growth at 10 µM [15]: 92.6%; inhibition of growth at 10 µM [16]: 92.7%; inhibition of growth at 10 µM [17]: 63.6%; GI50 [18]: 3.82 µM; TGI [18]: > 100 µM; CC50 [18, 20]: > 100 µM; inhibition of growth at 10 µM [19]: 42.9%

Source: ChEMBL document CHEMBL3046848, “Synthesis and biological evaluation of novel series of thieno[2,3-d]pyrimidine derivatives as anticancer and antimicrobial agents” (2013)
